The conditions of series [1]: Crystal; DTA.
The nature of series [2]: Molar enthalpy of transition or fusion. The note with it: Crystal; DSC.

± gives the expanded uncertainty stated by the source.

`CCCCCCCCCCCCCCCCCCCCCCCCCCCCO` [1-octacosanol]: the Normal melting temperature in series [1] amounted to 82.8 ± 1.1 °C. The “Molar enthalpy of transition or fusion” value in series [2] was determined as 25.9 ± 0.598 kcal/mol.

These data come from the NIST ThermoML archive (doi:10.1016/j.jct.2017.02.025).
